Key:
PiZ mice = experiment: Hepatic fibrosis in PiZ mice (Sirius Red, hepatic hydroxyproline); format: in vivo, mouse
From the text: Transgenic Mice PiZ mice that have been bred into the C57/BL6 background have been described previously (1). For the second and third series of experiments with CBZ we used PiZ mice that were re-derived onto the FVB/N background for a move into a new animal facility. The transgene that was used to generate the PiZ mouse is a genomic fragment of DNA that contains the coding regions of the ATZ gene together with introns and ˜2 kilobases of upstream and downstream flanking regions (10). […] In this perspective it is not an exact phenocopy of the classical form of AT deficiency. In particular it cannot be a model for the loss-of-function mechanisms associated with the classical form of AT deficiency. It is known to have abundant expression of ATZ in hepatocytes and other cell types that express ATZ in humans (11). In the liver there are abundant ATZ-containing intrahepatocytic globules and inflammation that is characteristic of what is seen in the human liver (11,12). […] Taken together, these observations indicate that the PiZ mouse is an appropriate model for the gain-of-toxic function mechanism that is responsible for liver damage in the classical form of AT deficiency. Indeed, the fact that these mice are endowed with endogenous AT function and therein normal levels of AT in the serum and body fluids make them an even more ‘pure’ model for liver damage by gain-of-toxic function. PiZ×GFP-LC3 mice, which generated green fluorescent autophagosomes, have been described previously (2). PiZ×IKKβ.hep were generated by mating of PiZ to IKKβ.hep, which has conditional hepatocyte-specific disruption of NF.B activation (M. Karin, 17). There is increased injury in the liver of these mice as evidenced by the hepatic hydroxyproline content, 153.3% of that in the PiZ mouse (FIG. 7).
Histology Sections of liver tissue were stained with hematoxylin and eosin, PAS, PAS after diastase treatment, TUNEL, PCNA, Ki67 and Sirius Red using standard techniques (18). Previous methods for staining with antibody to smooth muscle actin were used (19). Each was examined by the pathologist (GM) who was completely blinded to the experimental protocol. Sections of liver tissue were also stained with goat anti-human AT followed by donkey anti-goat Cy3 to detect AT-containing intracellular globules. Finally sections of liver tissue were stained with anti-GFP to optimize the detection of green fluorescent autophagosomes. The number of inflammatory nodules, AT-containing globules and autophagosomes were each quantified blindly by counting cells in 6 microscopic fields of 10 different sections for each liver. The number of nuclei, as determined by Hoechst staining, was used to exclude the possibility that different numbers of cells were counted in liver sections from mice treated with CBZ as compared to controls. Hepatic hydroxyproline concentration was determined by a well-established protocol (20,21).
Therapeutic regimens For the initial series of experiments in mice in vivo, the dose of 250 mg/kg/day for CBZ was based on previous studies of its biological effects in mice (22,23). […] CBZ was administered in DMSO by gavage once per day. Control mice were given an equivalent volume of DMSO by gavage. In a second series of experiments, doses of 200, 100 and 50 mg/kg/day of CBZ were administered for 6 weeks. The dose and route of administration of RAP, 2 mg/kg/day by intraperitoneal injection for 2 weeks, was based on previous studies that have shown activation of hepatic autophagy (24).

[1] = test system: ATZ in Atg5 deficient cell line; experiment: ATZ levels in autophagy-deficient (Atg5-/-) MEF cell line; format: cell-based, murine; conditions: Atg5-deficient cells
From the text: Cell Lines The human epidermal HeLa cell line with doxycycline-regulated expression of ATZ (HTO/Z) has been described previously (1). HTO/M and HTO/Saar are HeLa cell lines with doxycycline-regulated expression of wild type AT and the AT Saar variant, respectively (1). A murine embryonic fibroblast cell line (MEF) with targeted disruption of Atg5 (2) was engineered for stable expression of ATZ using the previously described pRc/RSV-ATZ expression plasmid (3). A wild type MEF cell line was also engineered for stable expression of ATZ in the same way to serve as control. For experiments with CBZ, the inducible cell lines were cultured in the absence of doxycycline for at least 4 weeks for maximal expression of AT. The cells were then subcultured into separate monolayers in fresh complete growth medium and incubated for 48 hours in the absence or presence of CBZ or rapamycin (RAP). CBZ or RAP were added to the growth medium. The duration of incubation with CBZ was determined to be optimal at 48 hours based on experiments in which the duration was varied from 12 to 72 hours. Doses of CBZ were based on previous studies of its effects in cell lines (5,6). […]
For immunoblot analysis to detect AT, GAPDH or LC3, cells were lysed in 50 mM Tris-HCl, 150 mM NaCl, 1% NP-40, pH 8.0. Protein levels were quantified using the BCA protein assay (Pierce Biotechnology, Rockford, Ill.). […]

NC(=O)N1c2ccccc2C=Cc2ccccc21 [CBZ, 5H-dibenz [b,f]azepine-5-carboxamide]
hepatic hydroxyproline concentrations (PiZ mice; 200 mg kg-1 day-1 for 6 weeks): decreased | hepatic fibrosis (Sirius red) (PiZ mice; 250 mg kg-1 for 2 weeks, FIG. 4E): marked decrease | decrease of hepatic hydroxyproline content (PiZ mice; PiZ mice vs untreated PiZ, FIG. 7): 46.7% | lowest effective dose (hepatic hydroxyproline) (PiZ mice; PiZ mice, 6 weeks): 200 mg/kg/day | hepatic hydroxyproline concentration (PiZ mice; PiZ mice, mean±SD, control 2.27±1.02, P=0.0074): 1.21 ± 0.7 µg/mg dry weight | levels of soluble ATZ [1]: decrease
